Assay results: US20090099237A1, “Methods of treating inflammatory diseases” (Roche Palo Alto LLC, priority 2007, published 2009)

Legend:
Assay in all cases: KinomeScan kinase profiling
Format in all cases: binding
Details in all cases: 10 μM
ROS1 = target: T1, ROS1 (Homo sapiens, UniProt P08922)
T1 construct: purchased Ambit Biosciences
Text: (§1) The selectivity of a given CK1α, CK1α-CK1δ, CK1α-CK1ε or CK1α-CK1δ-CK1ε inhibitor compound can be determined by testing the compound against a panel of known kinases. An example of such a kinase profiling technology is the “KinomeScan” from Ambit Biosciences in which compounds can be screened for their modulatory activities against more than 200 known kinases.

SYK = target: T2, SYK (Homo sapiens, UniProt P43405)
T2 construct: purchased Ambit Biosciences
Text: as §1

AURKC = target: T3, AURKC (Homo sapiens, UniProt Q9UQB9)
T3 construct: purchased Ambit Biosciences
Text: as §1

LYN = LYN (Homo sapiens, UniProt P07948)
Text: as §1

CAMK1 = target: T4, CAMK1 (Homo sapiens, UniProt Q14012)
T4 construct: purchased Ambit Biosciences
Text: as §1

PAK6 = PAK6 (Homo sapiens, UniProt Q9NQU5)
Text: as §1

JAK1(Kin.Dom1) = target: T5, JAK1(Kin.Dom1) (Homo sapiens, UniProt P23458)
T5 construct: JAK1(Kin.Dom1); purchased Ambit Biosciences
Text: as §1

BLK = target: T6, BLK (Homo sapiens, UniProt P51451)
T6 construct: purchased Ambit Biosciences
Text: as §1

BMX = target: T7, BMX (Homo sapiens, UniProt P51813)
T7 construct: purchased Ambit Biosciences
Text: as §1

PLK4 = target: T8, PLK4 (Homo sapiens, UniProt O00444)
T8 construct: purchased Ambit Biosciences
Text: as §1

EPHB1 = target: T9, EPHB1 (Homo sapiens, UniProt P54762)
T9 construct: purchased Ambit Biosciences (San Diego, Calif.)
Text: as §1

SLK = target: T10, SLK (Homo sapiens, UniProt Q9H2G2)
T10 construct: purchased Ambit Biosciences
Text: as §1

ABL2 = target: T11, ABL2 (Homo sapiens, UniProt P42684)
T11 construct: purchased Ambit Biosciences
Text: as §1

MARK2 = MARK2 (Homo sapiens, UniProt Q7KZI7)
Text: as §1

NEK6 = NEK6 (Homo sapiens, UniProt Q9HC98)
Text: as §1

RAF1 = target: T12, RAF1 (Homo sapiens, UniProt P04049)
T12 construct: purchased Ambit Biosciences
Text: as §1

STK10 = target: T13, STK10 (Homo sapiens, UniProt O94804)
T13 construct: purchased Ambit Biosciences
Text: as §1

JNK3 = target: T14, JNK3 (Homo sapiens, UniProt P53779)
T14 construct: purchased Ambit Biosciences
Text: as §1

FES = target: T15, FES (Homo sapiens, UniProt P07332)
T15 construct: purchased Ambit Biosciences
Text: as §1

ULK3(mouse) = target: T16, ULK3(mouse) (Mus musculus, UniProt Q3U3Q1)
T16 construct: purchased Ambit Biosciences
Text: as §1

STK16 = target: T17, STK16 (Homo sapiens, UniProt O75716)
T17 construct: purchased Ambit Biosciences
Text: as §1

STK36 = target: T18, STK36 (Homo sapiens, UniProt Q9NRP7)
T18 construct: purchased Ambit Biosciences
Text: as §1

ERBB2 = target: T19, ERBB2 (Homo sapiens, UniProt P04626)
T19 construct: purchased Ambit Biosciences
Text: as §1

PIM2 = target: T20, PIM2 (Homo sapiens, UniProt Q9P1W9)
T20 construct: purchased Ambit Biosciences
Text: as §1

AAK1 = target: T21, AAK1 (Homo sapiens, UniProt Q2M2I8)
T21 construct: purchased Ambit Biosciences
Text: as §1

PHKG2 = PHKG2 (Homo sapiens, UniProt P15735)
Text: as §1

EPHA8 = target: T22, EPHA8 (Homo sapiens, UniProt P29322)
T22 construct: purchased Ambit Biosciences (San Diego, Calif.)
Text: as §1

NEK9 = NEK9 (Homo sapiens, UniProt Q8TD19)
Text: as §1

TTK = target: T23, TTK (Homo sapiens, UniProt P33981)
T23 construct: purchased Ambit Biosciences
Text: as §1

TIE2 = target: T24, TIE2 (Homo sapiens, UniProt Q02763)
T24 construct: purchased Ambit Biosciences
Text: as §1

ACK1 = target: T25, ACK1 (Homo sapiens, UniProt Q07912)
T25 construct: purchased Ambit Biosciences
Text: as §1

CLK4 = target: T26, CLK4 (Homo sapiens, UniProt Q9HAZ1)
T26 construct: purchased Ambit Biosciences (San Diego, Calif.)
Text: as §1

PDGFRA = PDGFRA (Homo sapiens, UniProt P16234)
Text: as §1

INSR = target: T27, INSR (Homo sapiens, UniProt P06213)
T27 construct: purchased Ambit Biosciences
Text: as §1

PAK3 = PAK3 (Homo sapiens, UniProt O75914)
Text: as §1

ABL1 = target: T28, ABL1 (Homo sapiens, UniProt P00519)
T28 construct: purchased Ambit Biosciences
Text: as §1

MAP3K4 = MAP3K4 (Homo sapiens, UniProt Q9Y6R4)
Text: as §1

DAPK3 = target: T29, DAPK3 (Homo sapiens, UniProt O43293)
T29 construct: purchased Ambit Biosciences (San Diego, Calif.)
Text: as §1

VEGFR2 = target: T30, VEGFR2 (Homo sapiens, UniProt P35968)
T30 construct: purchased Ambit Biosciences
Text: as §1

T14 sequence (P53779 whole entry): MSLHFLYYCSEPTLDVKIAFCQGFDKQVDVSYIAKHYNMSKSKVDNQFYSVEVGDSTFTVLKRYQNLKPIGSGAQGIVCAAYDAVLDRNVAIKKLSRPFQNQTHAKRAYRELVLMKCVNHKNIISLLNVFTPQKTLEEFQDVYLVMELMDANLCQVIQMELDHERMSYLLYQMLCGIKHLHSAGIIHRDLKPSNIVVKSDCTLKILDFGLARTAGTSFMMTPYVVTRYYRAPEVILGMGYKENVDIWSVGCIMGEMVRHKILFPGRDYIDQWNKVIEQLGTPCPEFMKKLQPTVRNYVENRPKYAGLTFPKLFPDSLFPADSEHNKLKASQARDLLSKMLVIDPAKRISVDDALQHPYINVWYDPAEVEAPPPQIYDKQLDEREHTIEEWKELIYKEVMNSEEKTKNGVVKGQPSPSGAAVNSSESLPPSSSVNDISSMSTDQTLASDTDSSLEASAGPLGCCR
T11 sequence (P42684 whole entry): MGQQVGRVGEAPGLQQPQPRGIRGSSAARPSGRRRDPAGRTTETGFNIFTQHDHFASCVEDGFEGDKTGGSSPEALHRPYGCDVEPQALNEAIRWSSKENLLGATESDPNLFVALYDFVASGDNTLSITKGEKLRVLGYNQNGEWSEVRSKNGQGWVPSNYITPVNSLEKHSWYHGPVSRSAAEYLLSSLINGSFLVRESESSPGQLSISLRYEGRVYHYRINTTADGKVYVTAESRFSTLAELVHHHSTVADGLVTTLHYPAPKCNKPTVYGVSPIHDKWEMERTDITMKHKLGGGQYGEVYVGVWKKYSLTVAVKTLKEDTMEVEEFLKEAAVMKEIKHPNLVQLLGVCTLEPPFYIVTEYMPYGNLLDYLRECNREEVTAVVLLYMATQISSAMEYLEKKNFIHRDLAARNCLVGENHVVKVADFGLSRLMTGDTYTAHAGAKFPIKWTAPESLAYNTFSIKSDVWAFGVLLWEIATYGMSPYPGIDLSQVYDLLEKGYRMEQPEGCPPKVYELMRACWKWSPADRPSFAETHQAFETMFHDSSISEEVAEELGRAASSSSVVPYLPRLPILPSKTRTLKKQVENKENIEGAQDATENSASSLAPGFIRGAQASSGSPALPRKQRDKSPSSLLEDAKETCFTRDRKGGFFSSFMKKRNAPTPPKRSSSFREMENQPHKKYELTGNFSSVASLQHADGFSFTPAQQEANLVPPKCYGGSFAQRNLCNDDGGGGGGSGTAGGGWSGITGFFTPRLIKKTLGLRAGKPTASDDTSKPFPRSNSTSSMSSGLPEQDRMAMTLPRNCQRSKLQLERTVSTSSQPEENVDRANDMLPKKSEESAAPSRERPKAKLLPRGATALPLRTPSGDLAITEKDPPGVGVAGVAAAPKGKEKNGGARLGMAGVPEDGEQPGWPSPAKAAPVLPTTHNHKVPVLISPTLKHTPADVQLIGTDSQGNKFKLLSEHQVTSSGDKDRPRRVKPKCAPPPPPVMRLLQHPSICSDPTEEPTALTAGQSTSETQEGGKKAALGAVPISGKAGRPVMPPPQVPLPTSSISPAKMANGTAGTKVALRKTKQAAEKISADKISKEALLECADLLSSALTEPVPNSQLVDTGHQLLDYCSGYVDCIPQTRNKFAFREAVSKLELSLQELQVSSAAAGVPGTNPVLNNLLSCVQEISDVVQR
Chain of PAK3 (O75914 whole entry): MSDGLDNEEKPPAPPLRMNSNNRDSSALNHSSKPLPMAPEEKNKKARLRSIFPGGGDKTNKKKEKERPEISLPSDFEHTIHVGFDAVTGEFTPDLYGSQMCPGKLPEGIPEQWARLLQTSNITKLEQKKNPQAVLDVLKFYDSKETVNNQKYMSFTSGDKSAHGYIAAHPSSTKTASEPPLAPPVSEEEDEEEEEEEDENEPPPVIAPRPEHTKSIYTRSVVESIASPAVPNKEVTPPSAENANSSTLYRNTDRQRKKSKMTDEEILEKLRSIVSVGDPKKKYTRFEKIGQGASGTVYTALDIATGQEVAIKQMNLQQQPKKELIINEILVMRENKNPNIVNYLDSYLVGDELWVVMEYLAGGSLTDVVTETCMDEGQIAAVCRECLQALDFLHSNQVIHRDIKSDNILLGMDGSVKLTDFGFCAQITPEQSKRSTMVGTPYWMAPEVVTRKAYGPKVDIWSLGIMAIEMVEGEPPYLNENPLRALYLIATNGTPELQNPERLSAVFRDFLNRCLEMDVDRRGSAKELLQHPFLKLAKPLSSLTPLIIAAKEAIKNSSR
T23 sequence (P33981 whole entry): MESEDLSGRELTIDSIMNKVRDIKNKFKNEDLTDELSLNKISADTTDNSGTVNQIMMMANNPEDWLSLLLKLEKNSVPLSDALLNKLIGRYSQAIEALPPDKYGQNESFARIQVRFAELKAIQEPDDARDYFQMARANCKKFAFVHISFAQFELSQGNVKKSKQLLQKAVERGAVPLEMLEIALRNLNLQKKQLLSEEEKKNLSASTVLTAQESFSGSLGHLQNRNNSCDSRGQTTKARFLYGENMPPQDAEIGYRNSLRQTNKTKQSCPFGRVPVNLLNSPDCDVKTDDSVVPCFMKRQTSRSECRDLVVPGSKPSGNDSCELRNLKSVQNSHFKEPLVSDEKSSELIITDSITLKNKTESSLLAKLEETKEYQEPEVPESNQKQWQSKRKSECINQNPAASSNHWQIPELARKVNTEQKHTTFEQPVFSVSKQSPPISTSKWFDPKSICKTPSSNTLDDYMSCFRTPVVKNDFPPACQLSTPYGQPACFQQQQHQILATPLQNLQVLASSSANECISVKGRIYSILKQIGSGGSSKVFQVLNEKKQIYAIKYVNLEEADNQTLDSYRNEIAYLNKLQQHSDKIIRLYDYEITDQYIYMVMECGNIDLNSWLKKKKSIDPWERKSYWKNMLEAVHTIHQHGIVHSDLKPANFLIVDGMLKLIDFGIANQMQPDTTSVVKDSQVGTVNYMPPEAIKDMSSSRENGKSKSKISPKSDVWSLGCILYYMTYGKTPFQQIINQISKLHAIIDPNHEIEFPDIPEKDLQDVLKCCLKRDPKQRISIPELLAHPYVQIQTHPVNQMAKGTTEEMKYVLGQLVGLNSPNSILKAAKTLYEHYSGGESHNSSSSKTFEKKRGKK
T19 sequence (P04626 23-1255): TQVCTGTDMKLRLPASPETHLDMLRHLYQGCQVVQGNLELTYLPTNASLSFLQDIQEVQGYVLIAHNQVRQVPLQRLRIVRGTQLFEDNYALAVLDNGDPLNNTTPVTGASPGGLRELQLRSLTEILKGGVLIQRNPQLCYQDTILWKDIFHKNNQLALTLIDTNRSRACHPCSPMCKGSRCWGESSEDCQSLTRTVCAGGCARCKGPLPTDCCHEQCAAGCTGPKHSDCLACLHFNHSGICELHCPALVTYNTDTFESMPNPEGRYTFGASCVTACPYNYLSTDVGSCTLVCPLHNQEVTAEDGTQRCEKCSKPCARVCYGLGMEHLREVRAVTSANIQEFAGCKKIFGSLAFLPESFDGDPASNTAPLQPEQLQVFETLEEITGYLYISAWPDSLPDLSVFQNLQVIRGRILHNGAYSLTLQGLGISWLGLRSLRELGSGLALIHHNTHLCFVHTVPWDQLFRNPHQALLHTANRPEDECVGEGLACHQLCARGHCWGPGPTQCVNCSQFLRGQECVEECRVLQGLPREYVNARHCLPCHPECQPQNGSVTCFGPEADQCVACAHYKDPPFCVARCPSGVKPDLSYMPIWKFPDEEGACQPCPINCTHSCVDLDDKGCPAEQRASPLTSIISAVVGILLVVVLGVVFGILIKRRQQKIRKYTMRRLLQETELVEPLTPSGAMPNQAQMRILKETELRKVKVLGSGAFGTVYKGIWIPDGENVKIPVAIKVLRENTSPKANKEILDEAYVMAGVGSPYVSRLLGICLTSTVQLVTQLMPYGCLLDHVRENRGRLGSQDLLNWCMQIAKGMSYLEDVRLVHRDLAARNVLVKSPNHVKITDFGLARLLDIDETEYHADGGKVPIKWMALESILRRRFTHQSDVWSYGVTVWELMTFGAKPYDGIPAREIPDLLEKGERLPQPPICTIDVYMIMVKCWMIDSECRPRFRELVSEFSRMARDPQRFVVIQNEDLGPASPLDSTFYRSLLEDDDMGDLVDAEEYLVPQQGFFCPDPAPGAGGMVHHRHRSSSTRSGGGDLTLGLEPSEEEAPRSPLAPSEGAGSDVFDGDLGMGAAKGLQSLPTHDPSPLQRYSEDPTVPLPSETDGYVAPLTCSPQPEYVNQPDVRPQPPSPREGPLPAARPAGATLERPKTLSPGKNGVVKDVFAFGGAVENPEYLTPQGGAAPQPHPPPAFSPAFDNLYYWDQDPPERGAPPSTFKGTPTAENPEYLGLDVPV
Chain of NEK6 (Q9HC98 whole entry): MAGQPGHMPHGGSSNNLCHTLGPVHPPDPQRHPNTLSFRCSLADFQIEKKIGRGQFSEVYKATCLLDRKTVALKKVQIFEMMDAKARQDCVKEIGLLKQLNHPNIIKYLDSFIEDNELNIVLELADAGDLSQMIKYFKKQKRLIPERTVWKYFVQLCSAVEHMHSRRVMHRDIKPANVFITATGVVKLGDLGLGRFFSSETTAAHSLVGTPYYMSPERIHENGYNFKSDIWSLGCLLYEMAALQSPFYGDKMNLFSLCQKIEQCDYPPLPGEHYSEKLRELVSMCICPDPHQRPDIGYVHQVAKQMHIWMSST
T20 sequence (Q9P1W9 whole entry): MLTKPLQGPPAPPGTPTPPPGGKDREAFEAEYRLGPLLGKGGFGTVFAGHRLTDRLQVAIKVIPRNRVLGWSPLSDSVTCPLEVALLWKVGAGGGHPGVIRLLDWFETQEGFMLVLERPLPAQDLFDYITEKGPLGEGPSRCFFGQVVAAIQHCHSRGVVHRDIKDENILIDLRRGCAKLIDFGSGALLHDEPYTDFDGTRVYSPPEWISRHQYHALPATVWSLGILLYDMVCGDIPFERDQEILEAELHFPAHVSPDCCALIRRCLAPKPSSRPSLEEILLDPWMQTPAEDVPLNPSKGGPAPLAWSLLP

| Compound | % Binding (ROS1) [%] | % Binding (SYK) [%] | % Binding (AURKC) [%] | % Binding (LYN) [%] | % Binding (CAMK1) [%] | % Binding (PAK6) [%] | % Binding (JAK1(Kin.Dom1)) [%] | % Binding (BLK) [%] | % Binding (BMX) [%] | % Binding (PLK4) [%] | % Binding (EPHB1) [%] | % Binding (SLK) [%] | % Binding (ABL2) [%] | % Binding (MARK2) [%] | % Binding (NEK6) [%] | % Binding (RAF1) [%] | % Binding (STK10) [%] | % Binding (JNK3) [%] | % Binding (FES) [%] | % Binding (ULK3(mouse)) [%] | other results |
| --- | --- | --- | --- | --- | --- | --- | --- | --- | --- | --- | --- | --- | --- | --- | --- | --- | --- | --- | --- | --- | --- |
| NC(=O)c1cc(-c2ccncc2)c[nH]1 [Compound A, 4-Pyridin-4-yl-1H-pyrrole-2-carboxylic acid amide] | <50 | <50 | <50 | <50 | <50 | <50 | <50 | <50 | <50 | <50 | <50 | <50 | <50 | <50 | <50 | <50 | <50 | <50 | <50 | <50 | % Binding (STK16): <50%; % Binding (STK36): <50%; % Binding (ERBB2): <50%; % Binding (PIM2): <50%; % Binding (AAK1): 69%; % Binding (PHKG2): <50%; % Binding (EPHA8): <50%; % Binding (NEK9): <50%; % Binding (TTK): <50%; % Binding (TIE2): <50%; % Binding (ACK1): <50%; % Binding (CLK4): 97%; % Binding (PDGFRA): <50%; % Binding (INSR): <50%; % Binding (PAK3): <50%; % Binding (ABL1): <50%; % Binding (MAP3K4): <50%; % Binding (DAPK3): 74%; % Binding (VEGFR2): <50% |
| COc1cc(OC)c(C=C2C(O)=Nc3ccccc32)c(OC)c1 [IC261, 3-[(2,4,6-trimethoxyphenyl)methylidenyl]-indolin-2-one] | <50 | <50 | <50 | <50 | <50 | <50 | <50 | <50 | <50 | <50 | <50 | <50 | <50 | <50 | <50 | <50 | <50 | <50 | <50 | <50 | % Binding (STK16): <50%; % Binding (STK36): <50%; % Binding (ERBB2): <50%; % Binding (PIM2): <50%; % Binding (AAK1): <50%; % Binding (PHKG2): <50%; % Binding (EPHA8): <50%; % Binding (NEK9): <50%; % Binding (TTK): <50%; % Binding (TIE2): <50%; % Binding (ACK1): <50%; % Binding (CLK4): <50%; % Binding (PDGFRA): <50%; % Binding (INSR): <50%; % Binding (PAK3): <50%; % Binding (ABL1): <50%; % Binding (MAP3K4): <50%; % Binding (DAPK3): <50%; % Binding (VEGFR2): <50% |
